From PubChem BioAssay (NCI) come the findings set out here.

Values joined by “and” are separate entries in the source; they are usually repeats but may differ in a detail not shown here. Identical values can stand only once.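 Five concentrations, 48 hours, 96-well plates. GI50 is the concentration that inhibits growth by half. The concentration for full growth arrest is given as TGI.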

Common to all, as to test: inhibition of tumour cell growth, NCI panel, 48 h
Assay [1] concerns A498 renal.
Assay [2] relates to HT29 colon.
Assay [3] has as its system MOLT-4 leukemia.
The test system of assay [4] is KM12 colon.
Assay [5] has as its system HL-60(TB) leukemia.
Assay [6] relates to CCRF-CEM leukemia.
Assay [7] concerns OVCAR-4 ovarian.
For assay [8], the system named is NCI-H226 lung.
In assay [9] the test system is COLO 205 colon.
In assay [10] the test system is SN12C renal.

`CCN(CC)S(=O)(=O)c1cccc(-c2ccc3c(NC(=O)C4CC4)n[nH]c3c2)c1`: the GI50 in assay [1] was 1.61 µM; in assay [2] it was 2.3 µM; in assay [3], 1.75 µM; in assay [4], 1.08 µM; in assay [5], 2.17 µM; in [6], 1.84 µM. The GI50 in assay [7] was 1.61 µM; in assay [8], 3.78 µM; in assay [9] it was 1.71 µM; in [10] it was 3.77 µM. Besides, the TGI in assay [1], in assay [2], in [3], in assay [4], in [5] and in [6] was above 6.25 µM in each case. Besides, the TGI in assay [7], in assay [8], in assay [9] and in assay [10] was above 6.25 µM in each case.
With `Cc1ccc(NC(=S)C#N)c(C)c1`, the TGI in assay [1] was above 100 µM; in assay [2], above 100 µM; in assay [3], above 100 µM; in assay [4] it was above 100 µM; in [5], above 71.2 µM; in assay [6], above 100 µM. The TGI in assay [7], in [8], in assay [9] and in assay [10] was above 100 µM throughout.
Take `Cc1nc2sc(C(=O)Nc3ccccc3)c(N)c2cc1C(O)c1ccccc1` (configuration not stated): the GI50 in assay [1] is 0.106 µM; in [2] it was 0.326 µM; in assay [3], 0.367 µM; in [4], 0.344 µM; in assay [5], 0.234 µM; in assay [6], 0.234 µM. Also, the GI50 is 0.833 µM in assay [7], 1.24 µM in assay [8], 0.376 µM in [9] and 0.46 µM in assay [10]. Besides, the TGI in [1] is 1.19 µM; in assay [2], 17.6 µM; in assay [3] it was 25.5 µM; in [4] it was above 44 µM; in assay [5], 0.657 µM; in assay [7], above 100 µM. Besides, the TGI is above 100 µM in [8], 4.99 µM in assay [9] and above 100 µM in [10].
Turning to `COc1cc(C2c3cc4c(cc3[C@@H](Nc3ccc([N+](=O)[O-])cc3)C3COC(=O)[C@H]23)OCO4)cc(OC)c1O` (some centres not stated), the GI50 in [1] was 0.536 µM; in [3] it was 0.0342 µM; in assay [5], 0.0114 µM; in assay [6] it was 0.226 µM; in assay [10], 0.486 µM. The TGI in assay [1] was 4.8 µM; in assay [2], 7.81 µM; in assay [3], 0.544 µM and 0.442 µM; in [4] it was 6.42 µM; in [6], 0.967 µM and 8.1 µM; in [7], 62.4 µM. The TGI in assay [8] amounted to 3.1 µM; in assay [9] it was 10.1 µM; in assay [10], 7.96 µM.
`COc1c(B(O)O)cccc1-c1nc2ccc3[nH]ncc3c2c2c1CCCC2`: the GI50 is 0.491 µM in [1]; 3.17 µM in assay [2]; 1.57 µM in [3]; 2.25 µM in [4]; 0.658 µM in [5]; 0.544 µM in [6]. Also, the GI50 in assay [7] was 4.23 µM; in [8], 1.51 µM; in [9] it was 2.2 µM; in [10] it was 1.77 µM. The TGI is 3.88 µM in assay [1]; 16.4 µM in [2]; above 34.6 µM in assay [3]; 10.9 µM in [4]; 4.87 µM in assay [5]; above 49.7 µM in assay [6]. For the same compound, the TGI in assay [7] is 27.1 µM; in assay [8], 12.2 µM; in assay [9] it was 6.32 µM; in assay [10], 42.7 µM.
Consider `O=C(COC(=O)c1cccc2c(=O)c3ccccc3[nH]c12)Nc1ccc(Cl)cc1`, for which the TGI is 60 µM in assay [1]; above 100 µM in assay [2]; above 100 µM in assay [3]; above 100 µM in assay [4]; above 100 µM in assay [5]; above 100 µM in [6]. The TGI in assay [7], in [8], in [9] and in assay [10] was above 100 µM in each case.
For `COC(=O)c1c2c(c(C)[n+]([O-])c1C)C(=O)C(NCc1ccc(F)cc1)=CC2=O`, the GI50 is 1.57 µM in assay [1]; 0.711 µM in assay [2]; 1.98 µM in assay [3]; 1.66 µM in assay [4]; 0.745 µM in assay [5]; 2.34 µM in [6]. Besides, the GI50 in assay [7] was 0.519 µM; in assay [8], 2.16 µM; in assay [9] it was 0.376 µM; in assay [10] it was 1.17 µM. For the same compound, the TGI was 3.29 µM in assay [1]; above 100 µM in [2]; 5.33 µM in assay [3]; 6.49 µM in [4]; 3.6 µM in assay [5]; 8.36 µM in [6]. The TGI in [7] came out at 1.87 µM; in assay [8] it was 4.87 µM; in [9], 1.36 µM; in assay [10], 2.62 µM.
As for `O=C(NNc1ccccc1)c1ccc(Cl)c(Cl)c1`, the TGI in assay [1] is 59.7 µM; in assay [2], above 100 µM; in assay [3], above 100 µM; in assay [4], above 75.9 µM; in [5], 70.4 µM; in [6], above 100 µM. The TGI is above 100 µM in assay [7], above 100 µM in assay [8], 0.414 µM in [9] and above 100 µM in assay [10].
Regarding `O=C(CSC(c1ccccc1)c1ccccc1)N/N=C/c1ccccc1Cl`, the GI50 was 7.2 µM in assay [1]; above 63.2 µM in assay [2]; 6.33 µM in assay [3]; 27.1 µM in assay [4]; 17.4 µM in assay [6]; 11.3 µM in [7]. In addition, the values for the GI50 in assay [8], in assay [9] and in [10] were above 33 µM, above 71.8 µM and 2.66 µM, respectively. Also, the TGI was 59.9 µM in assay [1]; above 100 µM in [2]; 40.2 µM in [3]; 88.8 µM in [4]; 8.46 µM in assay [5]; 43.2 µM in assay [6]. For the same compound, the TGI in [7] was 77.2 µM; in assay [8], above 68.2 µM; in assay [9], above 100 µM; in assay [10], 11.8 µM.
